Measured values published in US11632973B2, “Composition comprising taste modulation compounds, their use and foodstuff comprising them” (V. MANE FILS, priority 2015, dated 2023).
“Also recorded” adds a separate entry of the source.

What was measured:
Assay type in all cases: in vivo
panelists = test: Various lactams added to cheese sauce, saltiness evaluation (Deviation from Reference); conditions: for perception of creaminess / perception of saltiness: cheese sauce comprising the compound, compared to the control; for Test Effects Taster 1 / Test Effects Taster 2 / Test Effects Taster 3 / Test Effects Taster 4: cheese sauce plus 5 ppm compound, compared with cheese sauce alone
Experimental: Epsilon-caprolactam, 2-piperidone, and N-methylcaprolactam were added to cheese sauce.
All cheese sauce samples were served at 21° C. Samples were stirred by hand prior to portioning to ensure even distribution of components. Approximately 9 ml of cheese sauce was served into odorless, translucent, one-ounce cups labeled with three-digit codes and capped with a lid. The samples were portioned out approximately 45 minutes prior to evaluation.
Panelists evaluated all samples in fully enclosed partitioned booths under white lights. Fizz NETWORK Software Acquisitions Biosystemes 2.47B was used for data collection. Each panelist was provided with filtered water for rinsing and instructed to follow a strict rinsing procedure. The rinsing protocol required panelists to rinse prior to tasting the first sample, and after tasting each sample.
Samples were evaluated using a Deviation from Reference (DFR) method. Panelists were given an identified reference labeled “000” and a coded sample simultaneously. The coded sample was either a blind, coded reference or a coded test sample. The panelists were instructed to taste the reference (000) first and mentally evaluate its SALTINESS intensity. Panelists were then instructed to taste and rate the coded sample's intensity for SALTINESS compared to the identified reference. Sample sets were given to the panelists in balanced, randomized order. A one-minute wait period was enforced between sample sets to reduce flavour carryover.
Panelists rated SALTINESS intensity difference from the reference using a 9-pt scale anchored with the following descriptors: (−4) Extremely less than Reference, (0) Same as Reference, (4) Extremely more than Reference. Number values were NOT shown on the scale. Statistical mean differences were calculated using one-way ANOVA using Fizz Calculations Biosystemes 2.47B. A significance level of p≤0.05 was set for statistical tests. Compared to the control the perceptions of saltiness and creaminess in the cheese sauce comprising epsilon-caprolactam, 2-piperidone, and N-methylcaprolactam is increased.

expert tasters [1] = test: Effect on sweetness perception of Rebaudioside-A in water; conditions: for Taster Observations Taster 1 / Taster Observations Taster 2 / Taster Observations Taster 3 / Taster Observations Taster 4: Reb-A 250 ppm in water, TMC level 5 ppm; for bitter interference: Rebaudioside-A at 250 ppm, 5 ppm compound; for perception of sweetness: products with high intensity sweetener, four expert tasters, vs control
Experimental: The taste perception of the products containing the high intensity sweeteners without epsilon-caprolactam or 2-piperidone (Control) is compared with the same product (Test) containing epsilon-caprolactam or 2-piperidone. […] When a tasting solution is dosed with Rebaudioside-A at 250 ppm, with either epsilon-caprolactam or 2-piperidone at each 5 ppm, “bitter interference” and brightens pure sweetness are reduced.

expert tasters [2] = test: as above
[3] = Reb-A 25 ppm in water, TMC level 5 ppm

For O=C1CCCCCN1 [epsilon-caprolactam], which perception of creaminess (panelists) is on record?
Its perception of creaminess is “increased”.

What about the perception of saltiness (panelists) of the same molecule?
The perception of saltiness was “increased”.

And the “Test Effects Taster 1” value (panelists)?
The value was “Slightly bitter; also recorded: Increased saltiness”.

And the “Test Effects Taster 2” value (panelists)?
The value was “Sweeter with less linger”.

What about the “Test Effects Taster 3” value (panelists) of the same molecule?
The value was “Cleaner; also recorded: Less lingering; also recorded: Sweeter upfront”.

What about the “Test Effects Taster 4” value (panelists) of the same molecule?
Its value is “Cleaner; also recorded: Less lingering; also recorded: Sweeter upfront”.

And the “Taster Observations Taster 1” value (expert tasters [1])?
The value was “sweeter, less; also recorded: lingering,; also recorded: slightly bitter”.

What about the “Taster Observations Taster 2” value (expert tasters [1]) of the same molecule?
Its value is “less linger”.

And the “Taster Observations Taster 3” value (expert tasters [1])?
The value was “sweeter; also recorded: cleaner,; also recorded: less lingering”.

What about the “Taster Observations Taster 4” value (expert tasters [1]) of the same molecule?
The value was “sweeter upfront,; also recorded: cleaner,; also recorded: less lingering”.

What about the bitter interference (expert tasters [1]) of the same molecule?
The bitter interference was “reduced”.

What about the perception of sweetness (expert tasters [1]) of the same molecule?
The perception of sweetness was “purified and amplified”.

What about the “Taster Observations Taster 1” value (expert tasters [2]; [3]) of the same molecule?
Its value is “sweet,; also recorded: slightly bitter”.

What about the “Taster Observations Taster 2” value (expert tasters [2]; [3]) of the same molecule?
The value was “dirty,; also recorded: unclean”.

What about the “Taster Observations Taster 4” value (expert tasters [2]; [3]) of the same molecule?
The value was “slightly higher; also recorded: sweet”.

CN1CCCCCC1=O [N-methylcaprolactam] was tested. Which perception of creaminess (panelists) did it give?
The perception of creaminess was “increased”.

What about the perception of saltiness (panelists) of the same molecule?
Its perception of saltiness is “increased”.

And the “Test Effects Taster 1” value (panelists)?
Its value is “Slight increase in saltiness”.

And the “Test Effects Taster 2” value (panelists)?
Its value is “Unclean; also recorded: Slightly bitter”.

And the “Test Effects Taster 3” value (panelists)?
Its value is “Bitter; also recorded: Increased saltiness”.

What about the “Test Effects Taster 4” value (panelists) of the same molecule?
Its value is “Least effective of three”.

Which perception of creaminess (panelists) does the source give for O=C1CCCCN1 [2-piperidone] here?
The perception of creaminess was “increased”.

What about the perception of saltiness (panelists) of the same molecule?
Its perception of saltiness is “increased”.

And the “Test Effects Taster 1” value (panelists)?
The value was “Delayed saltier; also recorded: More dairy impact”.

And the “Test Effects Taster 2” value (panelists)?
The value was “Increased saltiness; also recorded: Increased creaminess”.

What about the “Test Effects Taster 3” value (panelists) of the same molecule?
The value was “Saltier; also recorded: Creamier”.

And the “Test Effects Taster 4” value (panelists)?
Its value is “Clean sweet; also recorded: Stronger sweet”.

What about the “Taster Observations Taster 1” value (expert tasters [1]) of the same molecule?
The value was “clean sweet,; also recorded: control”.

And the “Taster Observations Taster 2” value (expert tasters [1])?
The value was “clean sweet,; also recorded: no lingering”.

And the “Taster Observations Taster 3” value (expert tasters [1])?
Its value is “clean sweet,; also recorded: no bitter,; also recorded: not linger”.

What about the “Taster Observations Taster 4” value (expert tasters [1]) of the same molecule?
Its value is “clean sweet,; also recorded: stronger sweet”.

What about the bitter interference (expert tasters [1]) of the same molecule?
Its bitter interference is “reduced”.

What about the perception of sweetness (expert tasters [1]) of the same molecule?
The perception of sweetness was “purified and amplified”.

What about the “Taster Observations Taster 1” value (expert tasters [2]; [3]) of the same molecule?
Its value is “sweeter,; also recorded: clean”.

And the “Taster Observations Taster 2” value (expert tasters [2]; [3])?
The value was “clean sweet,; also recorded: no bitter”.

And the “Taster Observations Taster 3” value (expert tasters [2]; [3])?
Its value is “no bitter”.

What about the “Taster Observations Taster 4” value (expert tasters [2]; [3]) of the same molecule?
The value was “best - sweetest,; also recorded: clean”.

What about the sweetness (expert tasters [2]; Rebaudioside-A at 25 ppm, 5 ppm compound) of the same molecule?
The sweetness was “purified and amplified”.
